Where “and” joins values, the source holds several entries; their conditions need not be identical. Equal values may be shown once. Toxic doses and inconclusive results are not listed.

In this assay the test system is P388 leukemia ip, CD2F1 mice, survival T/C. Put plainly: NCI In Vivo Anticancer Drug Screen. Data for tumor model P388 Leukemia (intraperitoneal) in CD2F1 (CDF1) mice. To be noted: endpoint: median survival time, higher = longer survival. The essentials:
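Mice carrying the transplanted tumor received test compound or vehicle. Survival was recorded in each group, and the value is the treated-group measurement divided by that of the vehicle-treated control group.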

Where [1] appears, read: dose: 50.0 mg/kg/injection, schedule: Q01DX005 (ip), vehicle: Klucel (hydroxypropylcellulose) (HPC).
[2] abbreviates: dose: 100.0 mg/kg/injection, schedule: Q01DX005 (ip), vehicle: Klucel (hydroxypropylcellulose) (HPC).
Where [3] appears, read: dose: 200.0 mg/kg/injection, schedule: Q01DX005 (ip), vehicle: Klucel (hydroxypropylcellulose) (HPC).
Setting [4] is: dose: 50.0 mg/kg/injection, schedule: Q01DX009 (ip), vehicle: saline with Tween-80.
Where [5] appears, read: dose: 100.0 mg/kg/injection, schedule: Q01DX009 (ip), vehicle: saline with Tween-80.
The mark [6] stands for this setting: dose: 200.0 mg/kg/injection, schedule: Q01DX009 (ip), vehicle: saline with Tween-80.
Setting [7] is: dose: 25.0 mg/kg/injection, schedule: Q01DX009 (ip), vehicle: saline.
The mark [8] stands for this setting: dose: 50.0 mg/kg/injection, schedule: Q01DX009 (ip), vehicle: saline.
The mark [9] stands for this setting: dose: 100.0 mg/kg/injection, schedule: Q01DX009 (ip), vehicle: saline.
Where [10] appears, read: dose: 15.0 mg/kg/injection, schedule: Q01DX005 (ip), vehicle: saline.
Setting [11] is: dose: 30.0 mg/kg/injection, schedule: Q01DX005 (ip), vehicle: saline.
The mark [12] stands for this setting: dose: 12.5 mg/kg/injection, schedule: Q01DX009 (ip), vehicle: saline with Tween-80.

As for `CC(OS(C)(=O)=O)C(C)OS(C)(=O)=O` (stereo unspecified), the T/C is, setting by setting: (dose: 100.0 mg/kg/injection, schedule: Q04DX003 (ip), vehicle: Klucel (hydroxypropylcellulose) (HPC)) 89 % of control; (dose: 200.0 mg/kg/injection, schedule: Q04DX003 (ip), vehicle: Klucel (hydroxypropylcellulose) (HPC)) 116 % of control; (dose: 400.0 mg/kg/injection, schedule: Q04DX003 (ip), vehicle: Klucel (hydroxypropylcellulose) (HPC)) 120 % of control.
For `CC(=O)OCc1c(COC(C)=O)c(C(F)(F)F)n2c1CCC2`, the T/C is 90 % of control (dose: 50.0 mg/kg/injection, schedule: Q01DX009 (ip), vehicle: Klucel (hydroxypropylcellulose) (HPC)); 93 % of control (dose: 100.0 mg/kg/injection, schedule: Q01DX009 (ip), vehicle: Klucel (hydroxypropylcellulose) (HPC)); 104 % of control (dose: 200.0 mg/kg/injection, schedule: Q01DX009 (ip), vehicle: Klucel (hydroxypropylcellulose) (HPC)).
With `CC1=NN(C(=O)c2cccnc2)C(=O)C1N=Nc1ccc(S(=O)(=O)Nc2ccccn2)cc1` (stereo unspecified), the T/C reads like this: (dose: 100.0 mg/kg/injection, schedule: Q04DX003 (ip), vehicle: saline with Tween-80) 94 % of control; (dose: 200.0 mg/kg/injection, schedule: Q04DX003 (ip), vehicle: saline with Tween-80) 93 % of control; (dose: 400.0 mg/kg/injection, schedule: Q04DX003 (ip), vehicle: saline with Tween-80) 90 % of control.
`CN1CCCN(C)C1c1ccccc1O`: the T/C reads like this: (dose: 12.5 mg/kg/injection, schedule: Q01DX009 (ip), vehicle: saline sonified) 100 % of control; (dose: 25.0 mg/kg/injection, schedule: Q01DX009 (ip), vehicle: saline sonified) 90 % of control; (dose: 50.0 mg/kg/injection, schedule: Q01DX009 (ip), vehicle: saline sonified) 100 % of control.
As for `CC1(C)CN2CCO[Si](CC[Si](C)(C)C)(OCC2)O1`, the T/C reads like this: under setting [1], 105 % of control; under setting [2], 105 % of control; under setting [3], 102 % of control.
As for `O=C(OC1(c2nccc3ccccc23)CCCN(Cc2ccccc2)C1)c1ccccc1` (stereo unspecified), the T/C is 106 % of control under setting [4], 109 % of control under setting [5] and 104 % of control under setting [6].
With `O=C(O)CC1C(=O)OC2C3COC(=O)c4cc(O)c(O)c(O)c4-c4c(cc(O)c(O)c4O)C(=O)OC2C(OC(=O)c2cc(O)c(O)c4c2C1C(O)C(=O)O4)C(OC(=O)c1cc(O)c(O)c(O)c1)O3` (stereo unspecified), the T/C is, setting by setting: (dose: 0.78 mg/kg/injection, schedule: Q01DX009 (ip), vehicle: saline) 99 % of control; (dose: 1.56 mg/kg/injection, schedule: Q01DX009 (ip), vehicle: saline) 102 % of control; (dose: 3.12 mg/kg/injection, schedule: Q01DX009 (ip), vehicle: saline) 98 % of control; (dose: 6.25 mg/kg/injection, schedule: Q01DX009 (ip), vehicle: saline) 100 % of control and 121 % of control; (dose: 12.5 mg/kg/injection, schedule: Q01DX009 (ip), vehicle: saline) 111 % of control and 93 % of control; under setting [7], 107 % of control and 97 % of control. Also, the T/C under setting [8] is 116 % of control and 97 % of control.
`COc1ccc2c(c1OC)C(OC)OC(c1cc3c(cc1CCN(C)C)OCO3)C2` (stereo unspecified): the T/C is 91 % of control (dose: 12.5 mg/kg/injection, schedule: Q01DX001 (ip), vehicle: saline + alcohol); 88 % of control (dose: 25.0 mg/kg/injection, schedule: Q01DX001 (ip), vehicle: saline + alcohol); 91 % of control (dose: 50.0 mg/kg/injection, schedule: Q01DX001 (ip), vehicle: saline + alcohol).
With `CC(C)=CCC1=C(O)c2ccccc2C(=O)C1=O`, the T/C was 120 % of control (dose: 75.0 mg/kg/injection, schedule: Q01DX010 (ip), vehicle: other); 118 % of control under setting [9]; 110 % of control (dose: 100.0 mg/kg/injection, schedule: Q01DX010 (ip), vehicle: other); 110 % of control (dose: 100.0 mg/kg/injection, schedule: Q04DX003 (ip), vehicle: saline); 120 % of control (dose: 125.0 mg/kg/injection, schedule: Q01DX010 (ip), vehicle: other); 118 % of control (dose: 200.0 mg/kg/injection, schedule: Q01DX009 (ip), vehicle: saline). The T/C runs as follows: (dose: 200.0 mg/kg/injection, schedule: Q04DX003 (ip), vehicle: saline) 115 % of control; (dose: 400.0 mg/kg/injection, schedule: Q01DX009 (ip), vehicle: saline) 95 % of control; (dose: 400.0 mg/kg/injection, schedule: Q04DX003 (ip), vehicle: saline) 120 % of control.
`N#CC1OC1c1cccc[n+]1[O-]` (stereo unspecified): the T/C by setting is: (dose: 6.25 mg/kg/injection, schedule: Q01DX005 (ip), vehicle: saline with Tween-80) 98 % of control; (dose: 6.25 mg/kg/injection, schedule: Q01DX005 (ip), vehicle: saline) 104 % of control; (dose: 12.5 mg/kg/injection, schedule: Q01DX005 (ip), vehicle: saline with Tween-80) 98 % of control; (dose: 12.5 mg/kg/injection, schedule: Q01DX005 (ip), vehicle: saline) 96 % of control; (dose: 25.0 mg/kg/injection, schedule: Q01DX005 (ip), vehicle: saline) 102 % of control.
For `NC(=O)C1C2C=CC(O2)C1C(=O)O` (stereo unspecified), the T/C reads like this: (dose: 7.5 mg/kg/injection, schedule: Q01DX005 (ip), vehicle: saline) 100 % of control; under setting [10], 104 % of control; under setting [11], 104 % of control.
For the compound `COc1ccc(N2CC=C(c3ccccc3)OP2(=O)N2CC2)cc1` (stereo unspecified), the T/C is 106 % of control under setting [1], 105 % of control under setting [2] and 95 % of control under setting [3].
In the case of `O=[N+]([O-])c1ccc(/C=C(/c2ccc([N+](=O)[O-])o2)S(=O)(=O)C(Cl)(Cl)Cl)cc1`, the T/C runs as follows: under setting [7], 100 % of control; under setting [8], 89 % of control; under setting [9], 91 % of control; (dose: 100.0 mg/kg/injection, schedule: Q01DX009 (ip), vehicle: suspension in saline) 86 % of control.
For the compound `OC(c1cc2ccc(C(F)(F)F)cc2c2cc(C(F)(F)F)ccc12)C1CCCCN1` (stereo unspecified), the T/C under setting [12] is 102 % of control and 107 % of control; the T/C (dose: 25.0 mg/kg/injection, schedule: Q01DX009 (ip), vehicle: saline with Tween-80) was 100 % of control and 102 % of control.
For the compound `CCCCCC(=O)c1c(O)cc2c(c1O)C(=O)c1c(O)cc(OC)cc1C2=O`, the T/C by setting is: (dose: 6.25 mg/kg/injection, schedule: Q01DX009 (ip), vehicle: saline with Tween-80) 93 % of control; under setting [12], 93 % of control.
Take `CC(C)Oc1nc(N2CCNCC2)nc2c1CCCC2`: the T/C reads like this: under setting [10], 101 % of control; under setting [11], 104 % of control; (dose: 60.0 mg/kg/injection, schedule: Q01DX005 (ip), vehicle: saline) 111 % of control and 90 % of control.
Regarding `N#CCCC1(CCC#N)CCCC(CCC#N)(CCC#N)C1=O`, the T/C runs as follows: under setting [4], 95 % of control; under setting [5], 99 % of control; under setting [6], 87 % of control; (dose: 400.0 mg/kg/injection, schedule: Q01DX009 (ip), vehicle: saline with Tween-80) 92 % of control.
On to `COC(=O)C1c2cc3c(c(O)c2C(OC)CC1(C)O)C(=O)c1c(O)cc2c(c1C3=O)OC1OC2(C)C(O)C(N(C)C)C1O` (stereo unspecified), for which the T/C is 156 % of control (dose: 3.16 mg/kg/injection, schedule: Q01DX009 (ip), vehicle: other); 161 % of control (dose: 5.0 mg/kg/injection, schedule: Q01DX009 (ip), vehicle: other); 168 % of control (dose: 6.25 mg/kg/injection, schedule: Q01DX009 (ip), vehicle: other); 171 % of control (dose: 10.0 mg/kg/injection, schedule: Q01DX009 (ip), vehicle: other); 168 % of control (dose: 12.5 mg/kg/injection, schedule: Q01DX009 (ip), vehicle: other); 171 % of control (dose: 20.0 mg/kg/injection, schedule: Q01DX009 (ip), vehicle: other). For the same compound, the T/C (dose: 25.0 mg/kg/injection, schedule: Q01DX009 (ip), vehicle: other) is 198 % of control and the T/C (dose: 40.0 mg/kg/injection, schedule: Q01DX009 (ip), vehicle: other) is 117 % of control.

Values taken from PubChem BioAssay AID330 (DTP/NCI, 2004).
